{"source": "patent US11701363B2", "about": "“Methods for treating viral disorders” (TRUSTEES OF BOSTON UNIVERSITY, priority 2009, dated 2023)", "key": {"[1]": {"tested_on": "HIV-1", "conditions": "OD converted to pg of protein; compared with vehicle alone", "procedure": "Virus production (p24 release) was examined in an HIV-1-infected monocyte line. Cells were treated or not treated with HDAC-inhibitors and other compounds. P24 release expressed as optical density (“OD”) (FIG. 13), and then converted to pg of protein (FIG. 14). […] DMSO was vehicle for some of the compounds tested."}, "[2]": {"tested_on": "P3HR1 cells", "assay": "Viable cell counts of P3HR1 cells (toxicity assays and combination treatment with GCV)", "description": "The EBV-positive B lymphoma cell line P3HR1 was used throughout these assays. The P3HR1 cell line was originally derived from Burkitt's lymphoma patient. EBV maintains a latent state of replication in this cell line. Cells were maintained in RPMI 1640 with 10% fetal bovine serum containing 100 U penicillin per ml and 100 μg streptomycin per ml. The HDAC inhibitors used were from five different classes: a) short chain fatty acids, b) hydroxamic acids, c) benzamides, d) cyclic tetrapeptides, and e) largazoles.\nToxicity assays with two anti-herpesvirus drugs, Gancicovir (GCV) and Penciclovir (PCV), treated to P3HR1 cells alone was conducted as a control. A total of 3×10^5 P3HR1 cells were incubated with various concentrations of GCV or PCV and incubated for 6 days. Viable cell counts were measured and toxicity was expressed as percentage of cell growth compared to untreated cells."}, "[3]": {"tested_on": "EBV TK", "assay": "TK mRNA level by reverse transcription and real-time PCR in P3HR1 cells", "type": "cell-based, Epstein-Barr virus", "description": "To measure the relative level of TK mRNA in various total RNA preparations, reverse transcription and quantitative PCR using real time PCR technology was used. Five micrograms of total RNA was reverse-transcribed using random hexamer primers and Superscript III cDNA synthesis kit (Invitrogen). The cDNA was diluted to a final volume of 60 μl with sterile water, 8 μl of which was then used in each real time PCR reaction in an ABI 7500 […] using SYBR-Green technology. Primers used for the amplification of TK were EBV-TK1-F: 5′-[…]-3′; EBV-TK1-R: 5′-[…]-3′. The ß-actin mRNA level in those samples were determined similarly using ß-actin-specific primers Actin/hu-F: 5′-[…]-3′; Actin/hu-R: 5′-[…]-3′. The relative level of TK expression in a sample was calculated following normalization of ß-actin expression level."}, "[4]": {"tested_on": "viral thymidine kinase", "assay": "Expression of viral thymidine kinase in EBV-infected lymphocytes", "type": "cell-based", "excerpt": "Three such examples are as follows. First, many of the RNA viruses such as HIV and other retroviruses require a reverse transcriptase to transcribe their genome into DNA. A few of the agents that induce expression or activity of retroviruses and their encoded genes, such as, for example, reverse transcriptase, are known to those of ordinary skill in the art. Anti-viral agents such as nucleoside analogs can be administered to the patient. Those substrate analogs will be specifically recognized by the reverse transcriptase that, when incorporated into the infected-cell genome, prevent viral replication and may also result in cell death. Second, many viruses require an active protease to assemble virus capsids to be packaged with viral genome. Protease inhibitors or proteases that alter cleavage patterns so that packaging cannot occur can be specifically targeted with an anti-viral agent that comprises an amino acid analog or toxic conjugate. […] Ganciclovir or famcyclovir, in the presence of the viral thymidine kinase or other viral kinases, destroys the infected cell. Treatment of infected cells with both agents, according to the invention, will selectively destroy EBV virus-infected cells. In another aspect, of infected cells with both agents, according to the invention, will selectively disable or disrupt the viral activity within the cells in vivo."}, "[5]": {"tested_on": "EBV-TK", "assay": "Induction of EBV-TK activity in EBV-immortalized B-cells and patient-derived tumor cells", "type": "cell-based, Epstein-Barr virus", "conditions": "preliminary in vitro studies", "excerpt": "In some embodiments, inducing agents include arginine butyrate and/or other histone deacetylase inhibitors. […] TK expression can be used as a point for attack by anti-viral agents, allowing for treatment of latent infections.\nTreatment of patients with viral-associated tumors such as EBV with inducing agents such as arginine butyrate, to induce the expression of EBV-TK, and GCV, to eliminate EBV-TK expressing tumor cells, is an effective, non-toxic therapy. […] Without wishing to be bound by theory, it is believed that just the presence of the EBV genome in latent form would make the tumor susceptible to this combination protocol."}}, "note": "Like-named read-outs stand apart in the source and are kept apart here."}
{"compound": "Cc1[nH]c2ccccc2c1CCNCc1ccc(/C=C/C(=O)NO)cc1", "note": "[LHB589, panobinostat]", "values": [{"measurement": "virus production (p24 release)", "setting": "[1]", "result": "active"}]}
{"compound": "Nc1ccccc1NC(=O)c1ccc(CNC(=O)OCc2cccnc2)cc1", "note": "[MS-275, 3-pyridinylmethyl [[4-[[(2-aminophenyl)amino]carbonyl]phenyl]methyl] carbamate]", "values": [{"measurement": "sensitizing P3HR1 cells to GCV-mediated effects", "setting": "[2]; 500 nM", "result": "as efficient as 1.0 mM NaB"}, {"measurement": "sensitizing P3HR1 cells to GCV-mediated killing after short exposure", "setting": "[2]; 24 hr exposure to MS-275+GCV, then GCV for up to 6 days", "result": "sensitized the cells to GCV-mediated effects as efficiently as a 72 hr continuous treatment"}, {"measurement": "TK expression", "setting": "[3]; 500 nM and higher concentrations", "result": "strongly induced TK expression"}, {"measurement": "TK expression", "setting": "[3]; 6 hr post treatment", "result": "induced"}]}
{"compound": "CCCC(=O)[O-].[Na+]", "note": "[NaB, Na-butyrate]", "values": [{"measurement": "optimal concentration for combination treatment with GCV", "setting": "[2]", "result": 1.0, "unit": "mM"}, {"measurement": "cell growth with inducing agent alone", "setting": "[2]; NaB alone at a concentration higher than 1.0 mM", "result": "reduces cell growth to a significant degree"}, {"measurement": "synergistic effects of GCV", "setting": "[2]; NaB at concentrations higher than 1.0 mM", "result": "lost"}]}
{"compound": "Nc1nc2c(ncn2CCC(CO)CO)c(=O)[nH]1", "note": "[PCV, Penciclovir]", "values": [{"measurement": "toxicity to P3HR1 cells (percentage of cell growth compared to untreated cells)", "setting": "[2]", "result": "less toxic to the cells compared to GCV"}, {"measurement": "level of inhibition of cell growth at higher concentrations", "setting": "[2]; in combination with Na-butyrate, concentrations higher than 40 μM", "result": "did not change significantly"}]}
{"compound": "CCCCCCCCCCCCCC(=O)O[C@@H]1[C@@H](C)[C@@]2(O)[C@@H](C=C(CO)C[C@]3(O)C(=O)C(C)=C[C@@H]23)[C@@H]2C(C)(C)[C@]12OC(C)=O", "note": "[PMA, phorbol myristate acetate]", "values": [{"measurement": "virus production (p24 release)", "setting": "[1]", "result": "active"}]}
{"compound": "O=C(/C=C/c1cccc(S(=O)(=O)Nc2ccccc2)c1)NO", "note": "[PXD101, Belinostat]", "values": [{"measurement": "TK expression", "setting": "[3]; 5 μM", "result": "high level of TK expression"}]}
{"compound": "CCC(Nc1ncnc2ccccc12)C(=O)O", "note": "(centres unmarked) [RB3]", "values": [{"measurement": "virus production (p24 release)", "setting": "[1]", "result": "increased viral production at levels similar to the control of vehicle alone"}]}
{"compound": "O=C(CCCCCCC(=O)Nc1ccccc1)NO", "note": "[SAHA, suberoyl anilide hydroxamic acid]", "values": [{"measurement": "reduction of cell growth in combination treatment with GCV", "setting": "[2]", "result": "less effective in reducing cell growth when combined with an antiviral agent compared to butyrate"}, {"measurement": "TK expression (TK mRNA level)", "setting": "[3]", "result": "higher level than that seen with efficient concentrations of butyrate (1.0 mM)"}]}
{"compound": "CCC(C)(C)C(=O)O", "note": "[ST20, 2,2-dimethyl butyrate]", "values": [{"measurement": "virus production (p24 release)", "setting": "[1]", "result": "increased viral production at levels similar to the control of vehicle alone"}]}
{"compound": "O=C(CCCCCN1C(=O)c2cccc3cccc(c23)C1=O)NO", "note": "[Scriptaid]", "values": [{"measurement": "reduction of cell growth in combination treatment with GCV", "setting": "[2]; especially at 500 nM and 1 μM", "result": "strong synergistic effect with GCV"}]}
{"compound": "CC(/C=C/C(=O)NO)=C\\[C@@H](C)C(=O)c1ccc(N(C)C)cc1", "note": "[TSA, trichostatin A]", "values": [{"measurement": "virus production (p24 release)", "setting": "[1]", "result": "active"}]}
{"compound": "CCCC(CCC)C(=O)O", "note": "[VA, valproic acid]", "values": [{"measurement": "reduction of cell growth in combination treatment with GCV", "setting": "[2]", "result": "very similar activity"}, {"measurement": "TK expression (TK mRNA level)", "setting": "[3]", "result": "less efficient than NaB"}]}
{"compound": "CCC(=O)CCCCC[C@@H]1NC(=O)[C@H]2CCCCN2C(=O)[C@H]([C@@H](C)CC)NC(=O)[C@H](Cc2cn(OC)c3ccccc23)NC1=O", "note": "[apicidin]", "values": [{"measurement": "cell growth without any GCV", "setting": "[2]; 200 nM", "result": "significantly retarded"}, {"measurement": "toxicity to the cells", "setting": "[2]; 500 nM", "result": "very toxic to the cells"}, {"measurement": "toxicity to the cells", "setting": "[2]; apicidin alone, concentrations higher than 200 nM", "result": "quite toxic to the cells"}, {"measurement": "reduction of cell growth over cells treated with apicidin alone", "setting": "[2]; combination with GCV, 100 nM and 200 nM", "result": "40-50%"}, {"measurement": "virus production (p24 release)", "setting": "[1]", "result": "active"}]}
{"compound": "CC(C)C(N)=O", "note": "[isobutyramide]", "values": [{"measurement": "expression of viral thymidine kinase and other viral protein kinases", "setting": "[4]", "result": "enhance expression"}]}
{"compound": "CCCCCCCC(=O)SCC/C=C/[C@@H]1CC(=O)NCc2nc(cs2)C2=N[C@@](C)(CS2)C(=O)N[C@@H](C(C)C)C(=O)O1", "note": "[largazole]", "values": [{"measurement": "virus production (p24 release)", "setting": "[1]", "result": "active"}]}
{"compound": "Oxamflatin", "values": [{"measurement": "reduction of cell growth in combination treatment with GCV", "setting": "[2]", "result": "synergistic activity with GCV"}, {"measurement": "activity level (growth suppression) in combination with GCV", "setting": "[2]; 200 nM", "result": "more than what typically seen with 1.0 mM NaB"}]}
{"compound": "arginine butyrate", "values": [{"measurement": "EBV-TK activity", "setting": "[5]", "result": "induces EBV-TK activity"}, {"measurement": "expression of viral thymidine kinase and other viral protein kinases", "setting": "[4]", "result": "enhance expression"}, {"measurement": "virus production (p24 release)", "setting": "[1]", "result": "active"}]}
